Data reported in ChEMBL document CHEMBL1201862, “PubChem BioAssay data set” (2004).
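Values below derive from 48-hour exposures of cells grown in 96-well plates, with endpoints linearly interpolated between the two concentrations bracketing the appropriate inhibition level. Abbreviation: GI50, concentration required for 50% inhibition of growth.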 Active and inactive are the calls of the source. Rule as the data show it: active = GI50 up to about 1.1 µM and inactive = higher.

What was measured:
Experiment in all cases: NCI-60 cell line screen, 48 h
[1] = system: 786-0
[2] = system: A549
[3] = system: ACHN
[4] = system: BT-549
[5] = system: CAKI-1
[6] = system: CCRF-CEM
[7] = system: COLO 205
[8] = system: DU-145
[9] = system: EKVX
[10] = system: HCC 2998
[11] = system: HCT-116
[12] = system: HCT-15
[13] = system: HL-60
[14] = system: HOP-62
[15] = system: HT-29
[16] = system: Hs-578T
[17] = system: IGROV-1
[18] = system: K562
[19] = system: KM12
[20] = system: LOX IMVI
[21] = system: M14
[22] = system: MCF7
[23] = system: MDA-MB-231
[24] = system: MDA-MB-435
[25] = system: MDA-N
[26] = system: MOLT-4
[27] = system: Malme-3M
[28] = system: NCI-H226
[29] = system: NCI-H23
[30] = system: NCI-H460
[31] = system: NCI/ADR-RES
[32] = system: OVCAR-3
[33] = system: OVCAR-4
[34] = system: OVCAR-5
[35] = system: OVCAR-8
[36] = system: PC-3
[37] = system: RPMI-8226
[38] = system: RXF 393
[39] = system: SF-268
[40] = system: SF-295
[41] = system: SK-MEL-28
[42] = system: SK-MEL-2
[43] = system: SK-MEL-5
[44] = system: SK-OV-3
[45] = system: SN12C
[46] = system: SNB-19
[47] = system: SNB-75
[48] = system: SR
[49] = system: SW-620
[50] = system: T47D
[51] = system: TK-10
[52] = system: U-251
[53] = system: UACC-257
[54] = system: UACC-62
[55] = system: UO-31
[56] = system: A498
[57] = system: NCI-H522

Q: `CN1CCC(O)(C(C)(C)C)CC1` was tested. Which GI50 [1] did it give?
A: > 100 µM (inactive)

Q: And the GI50 [2]?
A: > 100 µM (inactive)

Q: And the GI50 [3]?
A: > 100 µM (inactive)

Q: What about the GI50 [4] of the same molecule?
A: > 100 µM (inactive)

Q: And the GI50 [5]?
A: > 100 µM (inactive)

Q: What about the GI50 [6] of the same molecule?
A: > 100 µM (inactive)

Q: What about the GI50 [7] of the same molecule?
A: > 100 µM (inactive)

Q: What about the GI50 [8] of the same molecule?
A: > 100 µM (inactive)

Q: And the GI50 [9]?
A: > 100 µM (inactive)

Q: What about the GI50 [10] of the same molecule?
A: > 100 µM (inactive)

Q: And the GI50 [11]?
A: > 100 µM (inactive)

Q: And the GI50 [12]?
A: > 100 µM

Q: What about the GI50 [13] of the same molecule?
A: > 100 µM (inactive)

Q: And the GI50 [14]?
A: > 100 µM (inactive)

Q: What about the GI50 [15] of the same molecule?
A: > 100 µM (inactive)

Q: And the GI50 [16]?
A: > 100 µM (inactive)

Q: And the GI50 [17]?
A: > 100 µM (inactive)

Q: What about the GI50 [18] of the same molecule?
A: > 100 µM (inactive)

Q: And the GI50 [19]?
A: > 100 µM (inactive)

Q: And the GI50 [20]?
A: > 100 µM (inactive)

Q: And the GI50 [21]?
A: > 100 µM (inactive)

Q: What about the GI50 [22] of the same molecule?
A: > 100 µM (inactive)

Q: And the GI50 [23]?
A: > 100 µM (inactive)

Q: What about the GI50 [24] of the same molecule?
A: > 100 µM (inactive)

Q: And the GI50 [25]?
A: > 100 µM (inactive)

Q: What about the GI50 [26] of the same molecule?
A: > 100 µM (inactive)

Q: And the GI50 [27]?
A: > 100 µM (inactive)

Q: And the GI50 [28]?
A: > 100 µM (inactive)

Q: And the GI50 [29]?
A: > 100 µM (inactive)

Q: And the GI50 [30]?
A: > 100 µM (inactive)

Q: What about the GI50 [31] of the same molecule?
A: > 100 µM (inactive)

Q: What about the GI50 [32] of the same molecule?
A: > 100 µM (inactive)

Q: And the GI50 [33]?
A: > 100 µM (inactive)

Q: And the GI50 [34]?
A: > 100 µM (inactive)

Q: And the GI50 [35]?
A: > 100 µM (inactive)

Q: And the GI50 [36]?
A: > 100 µM (inactive)

Q: And the GI50 [37]?
A: > 100 µM (inactive)

Q: And the GI50 [38]?
A: > 100 µM (inactive)

Q: What about the GI50 [39] of the same molecule?
A: > 100 µM (inactive)

Q: And the GI50 [40]?
A: > 100 µM (inactive)

Q: What about the GI50 [41] of the same molecule?
A: > 100 µM (inactive)

Q: And the GI50 [42]?
A: > 100 µM (inactive)

Q: And the GI50 [43]?
A: > 100 µM (inactive)

Q: What about the GI50 [44] of the same molecule?
A: > 100 µM (inactive)

Q: What about the GI50 [45] of the same molecule?
A: > 100 µM (inactive)

Q: What about the GI50 [46] of the same molecule?
A: > 100 µM (inactive)

Q: What about the GI50 [47] of the same molecule?
A: > 100 µM (inactive)

Q: What about the GI50 [48] of the same molecule?
A: > 100 µM (inactive)

Q: What about the GI50 [49] of the same molecule?
A: > 100 µM (inactive)

Q: And the GI50 [50]?
A: > 100 µM (inactive)

Q: And the GI50 [51]?
A: > 100 µM (inactive)

Q: And the GI50 [52]?
A: > 100 µM (inactive)

Q: And the GI50 [53]?
A: > 100 µM (inactive)

Q: And the GI50 [54]?
A: > 100 µM (inactive)

Q: What about the GI50 [55] of the same molecule?
A: > 100 µM (inactive)

Q: Which GI50 [1] does the source give for `CCn1cc2c(=O)n3ncn(-c4ccc(Br)cc4)c3nc2n1` here?
A: 63.2 µM (inactive)

Q: And the GI50 [56]?
A: > 100 µM (inactive)

Q: And the GI50 [2]?
A: > 100 µM (inactive)

Q: And the GI50 [3]?
A: > 100 µM (inactive)

Q: And the GI50 [4]?
A: > 100 µM (inactive)

Q: And the GI50 [5]?
A: 0.942 µM (active)

Q: And the GI50 [6]?
A: > 100 µM (inactive)

Q: And the GI50 [7]?
A: > 100 µM (inactive)

Q: And the GI50 [8]?
A: > 100 µM (inactive)

Q: And the GI50 [9]?
A: > 100 µM (inactive)

Q: What about the GI50 [10] of the same molecule?
A: > 100 µM (inactive)

Q: What about the GI50 [11] of the same molecule?
A: > 100 µM (inactive)

Q: And the GI50 [12]?
A: 93.8 µM

Q: What about the GI50 [13] of the same molecule?
A: > 100 µM (inactive)

Q: What about the GI50 [14] of the same molecule?
A: 38.5 µM (inactive)

Q: What about the GI50 [15] of the same molecule?
A: > 100 µM (inactive)

Q: And the GI50 [16]?
A: 29.9 µM (inactive)

Q: And the GI50 [17]?
A: 29.6 µM (inactive)

Q: What about the GI50 [18] of the same molecule?
A: > 100 µM (inactive)

Q: What about the GI50 [19] of the same molecule?
A: > 100 µM (inactive)

Q: What about the GI50 [21] of the same molecule?
A: > 100 µM (inactive)

Q: And the GI50 [22]?
A: > 100 µM (inactive)

Q: And the GI50 [23]?
A: 40.6 µM (inactive)

Q: What about the GI50 [24] of the same molecule?
A: > 100 µM (inactive)

Q: What about the GI50 [25] of the same molecule?
A: > 100 µM (inactive)

Q: What about the GI50 [26] of the same molecule?
A: > 100 µM (inactive)

Q: And the GI50 [27]?
A: > 100 µM (inactive)

Q: And the GI50 [28]?
A: > 100 µM (inactive)

Q: What about the GI50 [29] of the same molecule?
A: > 100 µM (inactive)

Q: And the GI50 [57]?
A: > 100 µM (inactive)

Q: What about the GI50 [31] of the same molecule?
A: > 100 µM (inactive)

Q: And the GI50 [32]?
A: > 100 µM (inactive)

Q: And the GI50 [33]?
A: > 100 µM (inactive)

Q: And the GI50 [34]?
A: > 100 µM (inactive)

Q: What about the GI50 [35] of the same molecule?
A: 78.9 µM (inactive)

Q: What about the GI50 [36] of the same molecule?
A: > 100 µM (inactive)

Q: And the GI50 [37]?
A: 40.3 µM (inactive)

Q: What about the GI50 [38] of the same molecule?
A: > 100 µM (inactive)

Q: And the GI50 [39]?
A: > 100 µM (inactive)

Q: What about the GI50 [40] of the same molecule?
A: > 100 µM (inactive)

Q: What about the GI50 [41] of the same molecule?
A: > 100 µM (inactive)

Q: And the GI50 [42]?
A: > 100 µM (inactive)

Q: And the GI50 [43]?
A: > 100 µM (inactive)

Q: What about the GI50 [44] of the same molecule?
A: > 100 µM (inactive)

Q: And the GI50 [45]?
A: > 100 µM (inactive)

Q: What about the GI50 [46] of the same molecule?
A: 49.9 µM (inactive)

Q: And the GI50 [47]?
A: 21 µM (inactive)

Q: And the GI50 [48]?
A: > 100 µM (inactive)

Q: What about the GI50 [49] of the same molecule?
A: > 100 µM (inactive)

Q: What about the GI50 [50] of the same molecule?
A: > 100 µM (inactive)

Q: What about the GI50 [51] of the same molecule?
A: 78.2 µM (inactive)

Q: What about the GI50 [52] of the same molecule?
A: 58.1 µM (inactive)

Q: And the GI50 [53]?
A: > 100 µM (inactive)

Q: What about the GI50 [54] of the same molecule?
A: > 100 µM (inactive)

Q: What about the GI50 [55] of the same molecule?
A: > 100 µM (inactive)
